Patent US10023570B2 (Array BioPharma, Inc., priority 2015, dated 2018)
Structures can show the parent of a compound that is named as a salt. Where two headings read alike, the source gives them in different places.

Columns and labels:
[1] = target: N-terminal GST tagged recombinant human RET cytoplasmic domain (aa 658-end), wild type RET kinase (Homo sapiens (Human), UniProt P07949); assay: RET Enzyme Assay (HTRF KinEASE-TK), wild type RET; format: biochemical
[2] = target: Kif5b-RET fusion protein in HEK-293 cells (Homo sapiens, UniProt P07949); assay: cell-based; details: HEK-293 cells expressing Kif5b-RET, phospho-RET(Tyr1062); read-out: KIF5B-RET pTYR1062 Cell IC50
Chain of Kif5b-RET fusion protein in HEK-293 cells (P07949 29-1114 limits assumed): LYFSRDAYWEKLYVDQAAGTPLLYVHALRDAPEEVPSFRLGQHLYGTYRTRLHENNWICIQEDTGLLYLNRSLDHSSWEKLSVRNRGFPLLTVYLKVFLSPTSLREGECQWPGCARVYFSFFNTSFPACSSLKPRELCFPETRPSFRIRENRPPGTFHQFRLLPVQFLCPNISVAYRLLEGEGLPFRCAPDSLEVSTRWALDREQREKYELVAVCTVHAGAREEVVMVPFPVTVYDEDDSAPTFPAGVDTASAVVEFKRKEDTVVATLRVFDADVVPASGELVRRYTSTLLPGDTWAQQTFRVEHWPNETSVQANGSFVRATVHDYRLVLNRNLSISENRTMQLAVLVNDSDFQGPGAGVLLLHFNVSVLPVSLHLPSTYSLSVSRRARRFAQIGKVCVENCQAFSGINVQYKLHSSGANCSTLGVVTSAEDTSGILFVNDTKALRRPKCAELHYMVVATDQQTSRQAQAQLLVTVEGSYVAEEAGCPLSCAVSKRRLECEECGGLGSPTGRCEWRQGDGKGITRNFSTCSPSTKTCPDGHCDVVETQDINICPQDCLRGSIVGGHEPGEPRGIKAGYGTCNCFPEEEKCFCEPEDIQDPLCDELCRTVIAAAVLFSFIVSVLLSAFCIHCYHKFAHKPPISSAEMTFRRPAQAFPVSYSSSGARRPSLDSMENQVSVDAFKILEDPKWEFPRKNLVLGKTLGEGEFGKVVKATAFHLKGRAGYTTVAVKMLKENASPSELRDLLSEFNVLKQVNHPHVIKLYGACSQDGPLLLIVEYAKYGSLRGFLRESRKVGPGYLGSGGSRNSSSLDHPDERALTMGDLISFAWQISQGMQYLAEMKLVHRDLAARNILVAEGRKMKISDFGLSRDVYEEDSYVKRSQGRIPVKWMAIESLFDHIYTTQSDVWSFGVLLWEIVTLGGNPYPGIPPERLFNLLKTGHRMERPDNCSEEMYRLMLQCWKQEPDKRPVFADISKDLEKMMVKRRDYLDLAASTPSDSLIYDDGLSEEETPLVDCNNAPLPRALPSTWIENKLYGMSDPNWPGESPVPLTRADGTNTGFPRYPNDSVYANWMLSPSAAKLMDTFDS

[3] = target: human KDR protein in HEK-293 cells (Homo sapiens (Human), UniProt P35968); assay: KDR Cell Assay (phospho-KDR in HEK-293 cells expressing inducible KDR); format: cell-based; details: pKDR Cell HEK 10% FBS IC50, HEK-293 cells expressing inducible KDR, VEGF stimulated, 10% FBS
Chain of human KDR protein in HEK-293 cells (P35968 20-1356): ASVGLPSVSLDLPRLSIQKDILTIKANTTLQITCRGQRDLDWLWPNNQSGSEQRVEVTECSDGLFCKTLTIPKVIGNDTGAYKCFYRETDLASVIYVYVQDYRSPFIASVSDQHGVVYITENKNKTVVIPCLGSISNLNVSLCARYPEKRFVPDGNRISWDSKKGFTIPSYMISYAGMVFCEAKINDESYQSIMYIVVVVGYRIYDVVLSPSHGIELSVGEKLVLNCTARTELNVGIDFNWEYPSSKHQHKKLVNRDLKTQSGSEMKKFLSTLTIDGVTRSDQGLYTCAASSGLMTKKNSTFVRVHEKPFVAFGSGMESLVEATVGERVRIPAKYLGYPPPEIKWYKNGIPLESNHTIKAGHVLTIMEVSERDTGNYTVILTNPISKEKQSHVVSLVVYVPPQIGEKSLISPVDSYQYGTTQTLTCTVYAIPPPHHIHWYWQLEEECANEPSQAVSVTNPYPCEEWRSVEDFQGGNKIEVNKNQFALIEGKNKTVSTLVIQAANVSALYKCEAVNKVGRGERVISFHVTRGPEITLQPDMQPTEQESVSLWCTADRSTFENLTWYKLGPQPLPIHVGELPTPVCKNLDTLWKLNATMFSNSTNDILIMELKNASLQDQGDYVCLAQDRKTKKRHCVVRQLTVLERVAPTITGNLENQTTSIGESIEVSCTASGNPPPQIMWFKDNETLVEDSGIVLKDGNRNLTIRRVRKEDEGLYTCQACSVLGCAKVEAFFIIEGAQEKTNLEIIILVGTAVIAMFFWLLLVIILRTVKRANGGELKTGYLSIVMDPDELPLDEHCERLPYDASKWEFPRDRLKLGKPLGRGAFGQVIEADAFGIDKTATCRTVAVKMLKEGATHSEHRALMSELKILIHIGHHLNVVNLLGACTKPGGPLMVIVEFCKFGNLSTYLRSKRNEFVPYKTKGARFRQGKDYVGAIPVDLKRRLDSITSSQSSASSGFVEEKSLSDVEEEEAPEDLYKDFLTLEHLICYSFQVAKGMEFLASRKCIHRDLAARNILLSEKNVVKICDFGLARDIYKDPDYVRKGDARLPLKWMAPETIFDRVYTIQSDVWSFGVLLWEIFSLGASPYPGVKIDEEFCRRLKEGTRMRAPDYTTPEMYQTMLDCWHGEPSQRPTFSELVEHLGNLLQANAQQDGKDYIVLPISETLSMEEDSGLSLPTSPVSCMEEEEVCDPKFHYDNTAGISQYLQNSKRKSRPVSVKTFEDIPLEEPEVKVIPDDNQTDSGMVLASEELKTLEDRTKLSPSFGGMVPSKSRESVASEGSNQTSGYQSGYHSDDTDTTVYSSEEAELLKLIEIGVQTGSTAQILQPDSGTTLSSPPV
Method in brief: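 HEK-293 cells with inducible human KDR were treated with compound for 1 h in DMEM (0.25% DMSO final), then lysed. Phospho-KDR was quantified by Meso Scale immunoassay, expressed as percent of control, and IC50 taken where a 4-parameter logistic fit crossed 50 POC.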

Chain of N-terminal GST tagged recombinant human RET cytoplasmic domain (aa 658-end), wild type RET kinase (P07949 658-1114): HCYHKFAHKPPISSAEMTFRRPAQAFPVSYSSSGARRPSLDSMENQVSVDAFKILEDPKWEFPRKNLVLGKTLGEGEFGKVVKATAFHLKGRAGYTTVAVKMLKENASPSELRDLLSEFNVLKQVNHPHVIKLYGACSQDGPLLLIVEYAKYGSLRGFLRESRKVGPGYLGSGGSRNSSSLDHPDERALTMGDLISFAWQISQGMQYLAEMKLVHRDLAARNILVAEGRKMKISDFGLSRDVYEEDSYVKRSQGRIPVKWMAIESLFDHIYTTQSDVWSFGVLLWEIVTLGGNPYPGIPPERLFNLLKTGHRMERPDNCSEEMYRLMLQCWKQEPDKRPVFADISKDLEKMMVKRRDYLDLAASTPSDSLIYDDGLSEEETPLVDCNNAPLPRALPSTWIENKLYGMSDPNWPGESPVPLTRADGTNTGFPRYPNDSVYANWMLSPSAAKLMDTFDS

For `Cn1cc(-c2cc(-c3ccc(N4CCC(C)(N)CC4)nc3)c3c(C#N)cnn3c2)cn1` [Example 202, 4-(6-(4-amino-4-methylpiperidin-1-yl)pyridin-3-yl)-6-(1-methyl-1H-pyrazol-4-yl)pyrazolo[1,5-a]pyridine-3-carbonitrile dihydrochloride], the IC50 [1] was 0.0417 µM, the IC50 [2] was 0.11 µM and the IC50 [3] was 0.992 µM.

With `CC(C)C(=O)NC1(C)CCN(c2ccc(-c3cc(-c4cnn(C)c4)cn4ncc(C#N)c34)cn2)CC1` [Example 203] the IC50 ([1]; wild type RET, 1 mM ATP) was 0.0058 µM, the IC50 [2] was 0.0052 µM and the IC50 [3] was 0.56 µM.

`CC(C)C(=O)N[C@@H]1CCCN(c2ccc(-c3cc(-c4cnn(C)c4)cn4ncc(C#N)c34)cn2)C1` [Example 226, (R)—N-(1-(5-(3-cyano-6-(1-methyl-1H-pyrazol-4-yl)pyrazolo[1,5-a]pyridin-4-yl)pyridin-2-yl)piperidin-3-yl)isobutyramide] was tested, and the IC50 ([1]; wild type RET, 1 mM ATP) was 0.0318 µM, the IC50 [2] was 0.0571 µM and the IC50 [3] was 1.17 µM.

For `C[C@H](NC(=O)C1CCN(c2ccc(-c3cc(-c4cnn(C)c4)cn4ncc(C#N)c34)cn2)CC1)C(F)(F)F` [Example 231, (S)-1-(5-(3-cyano-6-(1-methyl-1H-pyrazol-4-yl)pyrazolo[1,5-a]pyridin-4-yl)pyridin-2-yl)-N-(1,1,1-trifluoropropan-2-yl)piperidine-4-carboxamide], the IC50 ([1]; wild type RET, 1 mM ATP) was 0.0069 µM, the IC50 [2] was 0.0056 µM and the IC50 [3] was 0.279 µM.

Work on `COCC(C)NC(=O)C1CCN(c2ccc(-c3cc(-c4cnn(C)c4)cn4ncc(C#N)c34)cn2)CC1` (stereo not drawn) [Example 232, 1-(5-(3-cyano-6-(1-methyl-1H-pyrazol-4-yl)pyrazolo[1,5-a]pyridin-4-yl)pyridin-2-yl)-N-(1-methoxypropan-2-yl)piperidine-4-carboxamide] yielded an IC50 ([1]; wild type RET, 1 mM ATP) of 0.0121 µM, an IC50 [2] of 0.0244 µM and an IC50 [3] of 0.812 µM.

Work on `C[C@@H](NC(=O)C1CCN(c2ccc(-c3cc(-c4cnn(C)c4)cn4ncc(C#N)c34)cn2)CC1)C(F)(F)F` [Example 233, (R)-1-(5-(3-cyano-6-(1-methyl-1H-pyrazol-4-yl)pyrazolo[1,5-a]pyridin-4-yl)pyridin-2-yl)-N-(1,1,1-trifluoropropan-2-yl)piperidine-4-carboxamide] yielded an IC50 ([1]; wild type RET, 1 mM ATP) of 0.0136 µM, an IC50 [2] of 0.0273 µM and an IC50 [3] of 0.511 µM.

With `CC(C)OCCNC(=O)C1CCN(c2ccc(-c3cc(-c4cnn(C)c4)cn4ncc(C#N)c34)cn2)CC1` [Example 234, 1-(5-(3-cyano-6-(1-methyl-1H-pyrazol-4-yl)pyrazolo[1,5-a]pyridin-4-yl)pyridin-2-yl)-N-(2-isopropoxyethyl) piperidine-4-carboxamide] the IC50 ([1]; wild type RET, 1 mM ATP) was 0.0256 µM, the IC50 [2] was 0.0319 µM and the IC50 [3] was 1.21 µM.

With `COC(CNC(=O)C1CCN(c2ccc(-c3cc(-c4cnn(C)c4)cn4ncc(C#N)c34)cn2)CC1)C(F)(F)F` (stereo not drawn) [Example 235, 1-(5-(3-cyano-6-(1-methyl-1H-pyrazol-4-yl)pyrazolo[1,5-a]pyridin-4-yl)pyridin-2-yl)-N-(3,3,3-trifluoro-2-methoxypropyl) piperidine-4-carboxamide] the IC50 ([1]; wild type RET, 1 mM ATP) was 0.0074 µM, the IC50 [2] was 0.0051 µM and the IC50 [3] was 1.51 µM.

In the case of `COC(CNC(=O)C1CCN(c2ccc(-c3cc(-c4cnn(C)c4)cn4ncc(C#N)c34)cn2)CC1)C(C)C` (stereo not drawn) [Example 236, 1-(5-(3-cyano-6-(1-methyl-1H-pyrazol-4-yl)pyrazolo[1,5-a]pyridin-4-yl)pyridin-2-yl)-N-(2-methoxy-3-methylbutyl)piperidine-4-carboxamide], the IC50 ([1]; wild type RET, 1 mM ATP) is reported as 0.004 µM, the IC50 [2] is reported as 0.0032 µM and the IC50 [3] is reported as 0.477 µM.

Compound `CCONC(=O)C1CCN(c2ccc(-c3cc(-c4cnn(C)c4)cn4ncc(C#N)c34)cn2)CC1` [Example 237, 1-(5-(3-cyano-6-(1-methyl-1H-pyrazol-4-yl)pyrazolo[1,5-a]pyridin-4-yl)pyridin-2-yl)-N-ethoxypiperidine-4-carboxamide] has an IC50 ([1]; wild type RET, 1 mM ATP) of 0.0061 µM, an IC50 [2] of 0.0158 µM and an IC50 [3] of 0.84 µM.

In the case of `COC(C)CNC(=O)C1CCN(c2ccc(-c3cc(-c4cnn(C)c4)cn4ncc(C#N)c34)cn2)CC1` (stereo not drawn) [Example 239, 1-(5-(3-cyano-6-(1-methyl-1H-pyrazol-4-yl)pyrazolo[1,5-a]pyridin-4-yl)pyridin-2-yl)-N-(2-methoxypropyl) piperidine-4-carboxamide], the IC50 ([1]; wild type RET, 1 mM ATP) is reported as 0.0087 µM, the IC50 [2] is reported as 0.0058 µM and the IC50 [3] is reported as 0.916 µM.

Compound `Cn1cc(-c2cc(-c3ccc(N4CCC(C(=O)NCCC(F)(F)F)CC4)nc3)c3c(C#N)cnn3c2)cn1` [Example 242, 1-(5-(3-cyano-6-(1-methyl-1H-pyrazol-4-yl)pyrazolo[1,5-a]pyridin-4-yl)pyridin-2-yl)-N-(3,3,3-trifluoropropyl)piperidine-4-carboxamide] has an IC50 ([1]; wild type RET, 1 mM ATP) of 0.0045 µM, an IC50 [2] of 0.0063 µM and an IC50 [3] of 0.223 µM.

Work on `Cn1cc(-c2cc(-c3ccc(N4CCC(C(=O)NCC(F)(F)F)CC4)nc3)c3c(C#N)cnn3c2)cn1` [Example 243, 1-(5-(3-cyano-6-(1-methyl-1H-pyrazol-4-yl)pyrazolo[1,5-a]pyridin-4-yl)pyridin-2-yl)-N-(2,2,2-trifluoroethyl)piperidine-4-carboxamide] yielded an IC50 ([1]; wild type RET, 1 mM ATP) of 0.0056 µM, an IC50 [2] of 0.0054 µM and an IC50 [3] of 0.103 µM.

Work on `CC(C)CN(C)C(=O)C1CCN(c2ccc(-c3cc(-c4cnn(C)c4)cn4ncc(C#N)c34)cn2)CC1` [Example 244, 1-(5-(3-cyano-6-(1-methyl-1H-pyrazol-4-yl)pyrazolo[1,5-a]pyridin-4-yl)pyridin-2-yl)-N-isobutyl-N-methylpiperidine-4-carboxamide] yielded an IC50 ([1]; wild type RET, 1 mM ATP) of 0.0209 µM, an IC50 [2] of 0.0692 µM and an IC50 [3] of 0.66 µM.

Compound `CC(C)NC(=O)C1CCN(c2ccc(-c3cc(-c4cnn(C)c4)cn4ncc(C#N)c34)cn2)CC1` [Example 246, 1-(5-(3-cyano-6-(1-methyl-1H-pyrazol-4-yl)pyrazolo[1,5-a]pyridin-4-yl)pyridin-2-yl)-N-isopropylpiperidine-4-carboxamide] has an IC50 ([1]; wild type RET, 1 mM ATP) of 0.012 µM, an IC50 [2] of 0.0136 µM and an IC50 [3] of 0.949 µM.

With `CC(C)NC(=O)CC1CCN(c2ccc(-c3cc(-c4cnn(C)c4)cn4ncc(C#N)c34)cn2)CC1` [Example 249, 2-(1-(5-(3-cyano-6-(1-methyl-1H-pyrazol-4-yl)pyrazolo[1,5-a]pyridin-4-yl)pyridin-2-yl)piperidin-4-yl)-N-isopropylacetamide] the IC50 ([1]; wild type RET, 1 mM ATP) was 0.0266 µM, the IC50 [2] was 0.0335 µM and the IC50 [3] was 0.998 µM.

Compound `Cn1cc(-c2cc(-c3ccc(N4CCC(C)(C(=O)NCCC(F)(F)F)CC4)nc3)c3c(C#N)cnn3c2)cn1` [Example 250, 1-(5-(3-cyano-6-(1-methyl-1H-pyrazol-4-yl)pyrazolo[1,5-a]pyridin-4-yl)pyridin-2-yl)-4-methyl-N-(3,3,3-trifluoropropyl)piperidine-4-carboxamide] has an IC50 ([1]; wild type RET, 1 mM ATP) of 0.007 µM, an IC50 [2] of 0.0061 µM and an IC50 [3] of 0.468 µM.

`CC(C)NC(=O)C1(C)CCN(c2ccc(-c3cc(-c4cnn(C)c4)cn4ncc(C#N)c34)cn2)CC1` [Example 251, 1-(5-(3-cyano-6-(1-methyl-1H-pyrazol-4-yl)pyrazolo[1,5-a]pyridin-4-yl)pyridin-2-yl)-N-isopropyl-4-methylpiperidine-4-carboxamide] showed an IC50 ([1]; wild type RET, 1 mM ATP) of 0.0078 µM, an IC50 [2] of 0.0056 µM and an IC50 [3] of 0.495 µM.

In the case of `COCC(C)NC(=O)C1(C)CCN(c2ccc(-c3cc(-c4cnn(C)c4)cn4ncc(C#N)c34)cn2)CC1` (stereo not drawn) [Example 252, 1-(5-(3-cyano-6-(1-methyl-1H-pyrazol-4-yl)pyrazolo[1,5-a]pyridin-4-yl)pyridin-2-yl)-N-(1-methoxypropan-2-yl)-4-methylpiperidine-4-carboxamide], the IC50 ([1]; wild type RET, 1 mM ATP) is reported as 0.0116 µM, the IC50 [2] is reported as 0.0048 µM and the IC50 [3] is reported as 0.656 µM.

For `C[C@@H](NC(=O)C1(C)CCN(c2ccc(-c3cc(-c4cnn(C)c4)cn4ncc(C#N)c34)cn2)CC1)C(F)(F)F` [Example 253, (R)-1-(5-(3-cyano-6-(1-methyl-1H-pyrazol-4-yl)pyrazolo[1,5-a]pyridin-4-yl)pyridin-2-yl)-4-methyl-N-(1,1,1-trifluoropropan-2-yl)piperidine-4-carboxamide], the IC50 ([1]; wild type RET, 1 mM ATP) was 0.0161 µM, the IC50 [2] was 0.0084 µM and the IC50 [3] was 0.596 µM.

`COC(=O)C1(C)CCN(c2ccc(-c3cc(-c4cnn(C)c4)cn4ncc(C#N)c34)cn2)CC1` [Example 254, Methyl 1-(5-(3-cyano-6-(1-methyl-1H-pyrazol-4-yl)pyrazolo[1,5-a]pyridin-4-yl)pyridin-2-yl)-4-methylpiperidine-4-carboxylate] showed an IC50 ([1]; wild type RET, 1 mM ATP) of 0.0092 µM, an IC50 [2] of 0.0123 µM and an IC50 [3] of 0.446 µM.

With `CCC1(C(=O)NCCC(F)(F)F)CCN(c2ccc(-c3cc(-c4cnn(C)c4)cn4ncc(C#N)c34)cn2)CC1` [Example 255, 1-(5-(3-cyano-6-(1-methyl-1H-pyrazol-4-yl)pyrazolo[1,5-a]pyridin-4-yl)pyridin-2-yl)-4-ethyl-N-(3,3,3-trifluoropropyl)piperidine-4-carboxamide] the IC50 ([1]; wild type RET, 1 mM ATP) was 0.0091 µM, the IC50 [2] was 0.0073 µM and the IC50 [3] was 1.09 µM.

`CCC1(C(=O)NC(C)C)CCN(c2ccc(-c3cc(-c4cnn(C)c4)cn4ncc(C#N)c34)cn2)CC1` [Example 256, 1-(5-(3-cyano-6-(1-methyl-1H-pyrazol-4-yl)pyrazolo[1,5-a]pyridin-4-yl)pyridin-2-yl)-4-ethyl-N-isopropylpiperidine-4-carboxamide] was tested, and the IC50 ([1]; wild type RET, 1 mM ATP) was 0.0129 µM, the IC50 [2] was 0.0045 µM and the IC50 [3] was 0.735 µM.

`CCC1(C(=O)N[C@H](C)C(F)(F)F)CCN(c2ccc(-c3cc(-c4cnn(C)c4)cn4ncc(C#N)c34)cn2)CC1` [Example 257, (R)-1-(5-(3-cyano-6-(1-methyl-1H-pyrazol-4-yl)pyrazolo[1,5-a]pyridin-4-yl)pyridin-2-yl)-4-ethyl-N-(1,1,1-trifluoropropan-2-yl)piperidine-4-carboxamide] showed an IC50 ([1]; wild type RET, 1 mM ATP) of 0.0149 µM, an IC50 [2] of 0.0093 µM and an IC50 [3] of 1.35 µM.
